US7018615B2, “Method of identifying molecules that home to a selected organ in vivo” (The Burnham Institute, priority 1995, dated 2006)
Bridge positions count the residues as written; N and C are the ends. Ends that are not written are not given here.

Assays:
brain [1] = assay: Homing of individually amplified phage to brain compared with kidney (TU recovered); format: in vivo, mice; conditions: phage displaying the peptide, same input titer, TU recovered from each organ
Experimental: To determine the specificity of brain homing of the individual motifs identified, phage displaying the predominant motifs were amplified individually, diluted to the same input titer and administered to mice. Following administration, brain and kidney were removed and the number of TU of phage in each organ was determined. […] Specifically, the ratio of selective homing (brain:kidney) was about 8 for CNSRLHLRC (SEQ ID NO: 1) and for CLSSRLDAC (SEQ ID NO: 3), 4 for CENWWGDVC (SEQ ID NO: 2) and 9 for […] (SEQ ID NO: 16).

kidney = assay: Homing of individual phage to kidney compared with brain; format: in vivo, mice; conditions: phage expressing the peptide
Experimental: The same methodology used to isolate phage expressing brain homing peptides was used to isolate phage expressing peptides that home to kidney. In these experiments, brain was used as the control organ. A mixture of the CX5C (SEQ ID NO: 36) and the CX6C (SEQ ID NO: 37) libraries was administered as described above. Homing of phage to the kidney was obtained and an approximately 3× to 7× enrichment of phage homing to kidney was observed following a second round of in vivo panning.
The amino acid sequences were determined for the inserts in 48 cloned phage that homed to kidney. The peptides expressed by these phage were represented by two predominant sequences, CLPVASC (SEQ ID NO: 21; 46% of the clones sequenced) and CGAREMC (SEQ ID NO: 22; 17% of the clones; see Table 2). In addition, the peptide CKGRSSAC (SEQ ID NO: 23) appeared three times and three other peptides were present twice each.

brain [2] = assay: Homing of 125I-peptide/RBC complex to brain and kidney, alone or with unlabeled peptide; format: in vivo, mouse; conditions: for effect of coadministered unlabeled peptide on brain homing of the CLSSRLDAC/RBC complex / effect of coadministered unlabeled peptide on localization of the CLSSRLDAC/RBC complex in the kidney: 10 mM unlabeled peptide coadministered
Experimental: The synthetic cyclic CLSSRLDAC (SEQ ID NO: 3) peptide (1 mg) was labeled with iodine-125 using the Bolton and Hunter reagent (Amersham; Arlington Heights Ill.). Labeled peptide was purified by reverse phase HPLC on Sep-Pak™ cartridges (Waters, Millipore Corp.; Milford Pa.) and the ^125I-peptide (200 μg) was coupled to 1 ml glutaraldehyde-stabilized sheep RBC (Sigma Chemical Co.; St. Louis Mo.) according to the manufacturer's instructions.
After 2 min, each mouse was perfused through the heart with 50 ml DMEM and the brain and kidney were removed and assayed for radioactivity.
Approximately twice as much of the CLSSRLDAC/RBC complex (SEQ ID NO: 3) homed to brain than to kidney. […] Coadministration of unlabeled CVRLNSLAC (SEQ ID NO: 43) had no effect on selective homing of the complex to brain and no effect on the non-specific localization of the complex in the kidney.

brain [3] = assay: Peptide competition: synthetic cyclic peptide co-injected with brain homing phage; format: in vivo, mice; conditions: 100 μg synthetic cyclic peptide co-injected with 1×10^8 TU phage
Experimental: In order to confirm the specificity of a peptide for directing homing to a selected organ, peptide competition experiments were performed. The cyclic peptide, CLSSRLDAC (SEQ ID NO: 3), which is one of the brain homing peptides (see Table 1) was synthesized (Immunodynamics; La Jolla Calif.) and purified by HPLC. The effect on the homing of phage expressing CLSSRLDAC (SEQ ID NO: 3), CENWWGDVC (SEQ ID NO: 2) or […] (SEQ ID NO: 16) to the brain was examined in order to determine whether co-administration of the synthetic peptide affected homing of the phage.
Phage expressing CLSSRLDAC (SEQ ID NO: 3), CENWWGDVC (SEQ ID NO: 2) or […] (SEQ ID NO: 16) were titrated to the same concentration and 1×10^8 TU was injected into mice alone, or with 100 μg purified synthetic cyclic CLSSRLDAC (SEQ ID NO: 3) peptide. The synthetic CLSSRLDAC (SEQ ID NO: 3) peptide inhibited the homing of phage expressing CLSSRLDAC (SEQ ID NO: 3) by about 60%.

Row | Substance | ratio of selective homing (brain:kidney) (brain [1]) | ratio of selective kidney:brain homing (kidney) | other results
1 | CENWWGDVC (displayed on phage) | ~4 | – | –
2 | CGAREMC (displayed on phage) | – | 3 | –
3 | CKGRSSAC (displayed on phage) | – | 2 | –
4 | CLPVASC (displayed on phage) | – | 7 | –
5 | CLSSRLDAC (disulfide 1-9 (inferred)) [also synthesized as cyclic peptide] | about 8 | – | effect of coadministered unlabeled peptide on brain homing of the CLSSRLDAC/RBC complex (brain [2]): essentially completely inhibited; effect of coadministered unlabeled peptide on localization of the CLSSRLDAC/RBC complex in the kidney (brain [2]): had no effect; effect on homing to brain of CENWWGDVC phage (brain [3]): did not affect; inhibition of homing to brain of phage expressing CLSSRLDAC (brain [3]): about 60%
6 | CNSRLHLRC (displayed on phage) | about 8 | – | –
7 | CVRLNSLAC | – | – | effect of coadministered unlabeled peptide on brain homing of the CLSSRLDAC/RBC complex (brain [2]): had no effect; effect of coadministered unlabeled peptide on localization of the CLSSRLDAC/RBC complex in the kidney (brain [2]): no effect; brain homing activity (brain [2]; stated for the control peptide): no brain homing activity
8 | WRCVLREGPAGGCAWFNRHRL (displayed on phage) | ~9 | – | –
